These are literature values, as cited in patent US20070142399A1, “Dual function drugs and uses thereof” (Psychiatric Genomics, Inc., priority 2003, published 2007).

The target in one data set is D1 receptor (Homo sapiens, UniProt P21728).
For the next data set, the target named is D2 receptor (Homo sapiens, UniProt P14416).
Chain of D2 receptor (P14416 whole entry): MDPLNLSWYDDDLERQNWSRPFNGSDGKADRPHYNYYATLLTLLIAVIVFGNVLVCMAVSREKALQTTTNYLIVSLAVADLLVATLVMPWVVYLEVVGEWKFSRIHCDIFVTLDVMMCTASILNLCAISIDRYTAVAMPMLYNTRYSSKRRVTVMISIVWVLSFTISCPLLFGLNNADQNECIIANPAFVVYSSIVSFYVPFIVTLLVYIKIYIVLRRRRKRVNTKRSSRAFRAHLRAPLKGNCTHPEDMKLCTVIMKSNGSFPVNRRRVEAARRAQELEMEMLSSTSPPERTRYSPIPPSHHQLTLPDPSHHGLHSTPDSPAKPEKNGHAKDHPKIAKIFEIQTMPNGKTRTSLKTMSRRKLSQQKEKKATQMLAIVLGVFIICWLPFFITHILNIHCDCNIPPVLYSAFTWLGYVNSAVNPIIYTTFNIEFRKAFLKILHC

Chain of D1 receptor (P21728 whole entry): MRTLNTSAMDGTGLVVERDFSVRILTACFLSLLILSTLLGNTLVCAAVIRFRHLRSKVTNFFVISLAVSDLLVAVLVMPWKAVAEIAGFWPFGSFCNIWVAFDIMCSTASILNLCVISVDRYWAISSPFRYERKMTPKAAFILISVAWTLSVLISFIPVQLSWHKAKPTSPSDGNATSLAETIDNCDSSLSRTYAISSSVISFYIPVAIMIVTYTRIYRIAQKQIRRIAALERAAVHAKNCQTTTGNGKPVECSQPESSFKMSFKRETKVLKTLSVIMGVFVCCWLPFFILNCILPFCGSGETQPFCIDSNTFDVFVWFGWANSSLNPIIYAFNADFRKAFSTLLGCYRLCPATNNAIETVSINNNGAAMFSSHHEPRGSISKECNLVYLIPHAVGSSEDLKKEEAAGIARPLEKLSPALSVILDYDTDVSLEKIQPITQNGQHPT

In the case of `Oc1cc2c(cc1O)CC(NCc1ccccc1)CC2` (centres unmarked) [compound 80], the “potency at the D1 receptor as an agonist” value at D1 receptor is “not potent enough”. Further, the D2 agonist activity result on D2 receptor is recorded as “residual partial D2 agonist activity”.
